In this test the target is T1, AR (Homo sapiens, UniProt P10275).
T1 construct: endogenous in cells; host or cells: VCaP cells
T1 sequence (P10275 1-920): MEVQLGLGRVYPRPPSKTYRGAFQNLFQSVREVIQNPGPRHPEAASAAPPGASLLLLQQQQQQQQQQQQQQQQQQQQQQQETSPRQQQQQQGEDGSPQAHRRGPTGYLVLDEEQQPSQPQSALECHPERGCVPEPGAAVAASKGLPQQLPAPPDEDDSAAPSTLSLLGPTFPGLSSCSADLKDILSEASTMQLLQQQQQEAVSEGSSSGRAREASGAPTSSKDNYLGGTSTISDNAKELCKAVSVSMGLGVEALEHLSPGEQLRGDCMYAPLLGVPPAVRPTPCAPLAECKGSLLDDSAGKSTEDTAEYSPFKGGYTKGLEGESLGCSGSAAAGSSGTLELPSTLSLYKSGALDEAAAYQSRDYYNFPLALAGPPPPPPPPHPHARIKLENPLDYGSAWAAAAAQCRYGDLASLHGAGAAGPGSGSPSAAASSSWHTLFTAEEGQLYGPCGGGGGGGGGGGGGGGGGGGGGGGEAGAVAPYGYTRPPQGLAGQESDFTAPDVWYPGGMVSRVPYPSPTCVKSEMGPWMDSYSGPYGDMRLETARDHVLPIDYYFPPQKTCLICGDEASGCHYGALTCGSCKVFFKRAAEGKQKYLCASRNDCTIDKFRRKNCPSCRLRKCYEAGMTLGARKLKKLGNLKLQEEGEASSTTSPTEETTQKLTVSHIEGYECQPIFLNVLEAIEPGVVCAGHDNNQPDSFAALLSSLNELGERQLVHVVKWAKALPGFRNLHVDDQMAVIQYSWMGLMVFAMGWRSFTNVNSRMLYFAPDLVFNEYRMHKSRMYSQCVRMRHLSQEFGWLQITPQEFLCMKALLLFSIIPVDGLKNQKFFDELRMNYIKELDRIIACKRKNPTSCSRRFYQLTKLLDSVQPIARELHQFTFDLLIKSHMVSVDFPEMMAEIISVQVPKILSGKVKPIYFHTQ
In words: VCAP AR Degradation Assay. Conditions: for Y (AR degradation efficiency, % of DMSO control): class symbols *; for DC50: class symbols A-C, read-out: DC50. The class given is cell-based. As for the experimental part: VCAP AR Degradation Assay. Test compounds were pre-dispensed into a Corning CellBind 96-well clear bottom plate (Cat #3300) using an acoustic dispenser to make a 10-point concentration series at 1:3 dilution for each compound. The final top concentration of each compound was 5 μM. DMSO at a final concentration of 0.1% was used as a control. VCaP cells cultured in DMEM with 8% fetal bovine serum (FBS) were seeded at 50K cells per well in a 200 μL volume into the compound plate and incubated at 37° C. in a CO2 incubator for 24 h. The medium was carefully removed from the cells and the plate was placed on ice. One hundred μL of ice-cold 1x cell lysis buffer from Cell Signaling Technologies (Cat #9803) was added to each well of the cells and the plate was incubated at 4° C. on a shaker for 1 h. Fifteen μL of cell lysate was used for AR ELISA detection using a PathScan Total Sandwich AR ELISA kit (Cell Signaling Technology, Cat #12580). AR levels in compound-treated wells were normalized to that of DMSO control and expressed as percent of control (PoC) (y). A Four Parameter Logistic Model (Sigmoidal Dose-Response Model) was used to determine the compound's DC50, and EC50, using the following equation:
[formula] • A=YMin (lowest AR level normalized to DMSO control in response to compound treatment, as determined by curve fit) • B=YMax (maximum AR level as determined by curve fit) • C=EC50 • D=Hill Slope • x=compound concentration • EC50=the concentration of compound when y=(YMax−YMin)/2 • DC50=the concentration of the compound when y=50% of DMSO control (50% AR degradation) • y=AR protein level normalized to DMSO control
The lowest measured AR level normalized to DMSO control in response to compound treatment, termed Y value, was used to characterize the compound-mediated AR degradation efficiency.

Structures can show the parent of a compound that is named as a salt.

Regarding `CCc1cc(N2C(=S)N(c3ccc(C#N)c(C(F)(F)F)c3)C(=O)C2(C)C)ccc1OCCN1CCN(CC(=O)Nc2cc(Cl)cc(NC3CCC(=O)NC3=O)c2)CC1` (stereo not shown) [Example 40, hydrochloride], the “Y (AR degradation efficiency, % of DMSO control)” value is “* (0<Y<=25%)” and the DC50 (in general, the midpoint of the concentration-degradation curve) is less than 100 nM.

For `CCc1cc(N2C(=S)N(c3ccc(C#N)c(C(F)(F)F)c3)C(=O)C2(C)C)ccc1OCCN1CCN(CC(=O)Nc2cc(NC3CCC(=O)NC3=O)ccc2Cl)CC1` (stereo not shown) [Example 41, hydrochloride], the “Y (AR degradation efficiency, % of DMSO control)” value is given as “* (0<Y<=25%)” and the DC50 is less than 100 nM.

For `CCc1cc(N2C(=S)N(c3ccc(C#N)c(C(F)(F)F)c3)C(=O)C2(C)C)ccc1OCCN1CCN(CC(=O)Nc2cccc(NC3CCC(=O)NC3=O)c2)C[C@@H]1C` (stereo partly shown) [Example 43, hydrochloride], the “Y (AR degradation efficiency, % of DMSO control)” value is recorded as “* (0<Y<=25%)” and the DC50 is less than 100 nM.

Consider `CCc1cc(N2C(=S)N(c3ccc(C#N)c(C(F)(F)F)c3)C(=O)C2(C)C)ccc1OCCN1CCN(CC(=O)Nc2cccc(NC3CCC(=O)NC3=O)c2)C[C@H]1C` (stereo partly shown) [Example 44], for which the “Y (AR degradation efficiency, % of DMSO control)” value is reported as “* (0<Y<=25%)” and the DC50 was less than 100 nM.

Consider `CCc1cc(N2C(=S)N(c3ccc(C#N)c(C(F)(F)F)c3)C(=O)C2(C)C)ccc1OCCN1CCN(CC(=O)Nc2cccc(NC3CCC(=O)NC3=O)c2)[C@H](C)C1` (stereo partly shown) [Example 45], for which the “Y (AR degradation efficiency, % of DMSO control)” value is “* (0<Y<=25%)” and the DC50 was less than 100 nM.

Turning to `CCc1cc(N2C(=S)N(c3ccc(C#N)c(C(F)(F)F)c3)C(=O)C2(C)C)ccc1OCCN1CCN(CC(=O)Nc2cccc(NC3CCC(=O)NC3=O)c2)C[C@@H]1CO` (stereo partly shown) [Example 48], the “Y (AR degradation efficiency, % of DMSO control)” value is “* (0<Y<=25%)” and the 50% degradation concentration (DC50) is less than 100 nM.

Consider `CCc1cc(N2C(=S)N(c3ccc(C#N)c(C(F)(F)F)c3)C(=O)C2(C)C)ccc1OCCN1CCN(CC(=O)Nc2cccc(NC3CCC(=O)NC3=O)c2)C[C@H]1CO` (stereo partly shown) [Example 49], for which the “Y (AR degradation efficiency, % of DMSO control)” value is reported as “** (25%<Y<=35%)” and the DC50 was less than 100 nM.

On to `CCc1cc(N2C(=S)N(c3ccc(C#N)c(C(F)(F)F)c3)C(=O)C2(C)C)ccc1OCCN1CCN(CC(=O)Nc2cccc(NC3CCC(=O)NC3=O)c2)[C@H](CO)C1` (stereo partly shown) [Example 50], for which the “Y (AR degradation efficiency, % of DMSO control)” value is “*** (35%<Y<50%)” and the DC50 was 500 to 1000 nM.

In the case of `CCc1cc(N2C(=S)N(c3ccc(C#N)c(C(F)(F)F)c3)C(=O)C2(C)C)ccc1OCCN1CCN(CC(=O)Nc2cccc(NC3CCC(=O)NC3=O)c2)[C@@H](CO)C1` (stereo partly shown) [Example 51], the “Y (AR degradation efficiency, % of DMSO control)” value was “*** (35%<Y<50%)” and the DC50 fell in the range of 100 to 500 nM.

On to `CC(C)c1cc(N2C(=S)N(c3cnc(C#N)c(C(F)(F)F)c3)C(=O)C2(C)C)ccc1OCCN1CCN(CC(=O)Nc2cccc(NC3CCC(=O)NC3=O)c2)CC1` (stereo not shown) [Example 53, 2-(4-(2-(4-(3-(6-cyano-5-(trifluoromethyl)pyridin-3-yl)-5,5-dimethyl-4-oxo-2-thioxoimidazolidin-1-yl)-2-isopropylphenoxy)ethyl)piperazin-1-yl)-N-(3-(2,6-dioxopiperidin-3-ylamino)phenyl)acetamide], for which the “Y (AR degradation efficiency, % of DMSO control)” value is reported as “* (0<Y<=25%)” and the half-maximal degradation concentration (DC50) was less than 100 nM.

With `CCc1cc(N2C(=S)N(c3cnc(C#N)c(C(F)(F)F)c3)C(=O)C23CCC3)ccc1OCCN1CCN(CC(=O)Nc2cccc(NC3CCC(=O)NC3=O)c2)CC1` (stereo not shown) [Example 56, 2-(4-(2-(4-(7-(6-cyano-5-(trifluoromethyl)pyridin-3-yl)-8-oxo-6-thioxo-5,7-diazaspiro[3.4]octan-5-yl)-2-ethylphenoxy)ethyl)piperazin-1-yl)-N-(3-(2,6-dioxopiperidin-3-ylamino)phenyl)acetamide], the “Y (AR degradation efficiency, % of DMSO control)” value is “* (0<Y<=25%)” and the DC50 was less than 100 nM.

As to `CCc1cc(N2C(=S)N(c3ccc(C#N)c(C(F)(F)F)c3)C(=O)C2(C)C)ccc1OCCN1CCN([C@@H](C)C(=O)Nc2cccc(NC3CCC(=O)NC3=O)c2)CC1` (stereo partly drawn) [Example 57, (2S)-2-(4-(2-(4-(3-(4-cyano-3-(trifluoromethyl)phenyl)-5,5-dimethyl-4-oxo-2-thioxoimidazolidin-1-yl)-2-ethylphenoxy)ethyl)piperazin-1-yl)-N-(3-(2,6-dioxopiperidin-3-ylamino)phenyl)propanamide], the “Y (AR degradation efficiency, % of DMSO control)” value is “* (0<Y<=25%)” and the DC50 is less than 100 nM.

`CCc1cc(N2C(=S)N(c3ccc(C#N)c(C(F)(F)F)c3)C(=O)C2(C)C)ccc1OCCN1CCN([C@H](C)C(=O)Nc2cccc(NC3CCC(=O)NC3=O)c2)CC1` (stereo partly drawn) [Example 58, (2R)-2-(4-(2-(4-(3-(4-cyano-3-(trifluoromethyl)phenyl)-5,5-dimethyl-4-oxo-2-thioxoimidazolidin-1-yl)-2-ethylphenoxy)ethyl)piperazin-1-yl)-N-(3-(2,6-dioxopiperidin-3-ylamino)phenyl)propanamide]: the “Y (AR degradation efficiency, % of DMSO control)” value is given as “* (0<Y<=25%)” and the DC50 is less than 100 nM.

Turning to `CC(F)(F)c1cc(N2C(=S)N(c3ccc(C#N)c(C(F)(F)F)c3)C(=O)C2(C)C)ccc1OCCN1CCN(CC(=O)Nc2cccc(NC3CCC(=O)NC3=O)c2)CC1` (stereo not shown) [Example 59, 2-(4-(2-(4-(3-(4-cyano-3-(trifluoromethyl)phenyl)-5,5-dimethyl-4-oxo-2-thioxoimidazolidin-1-yl)-2-(1,1-difluoroethyl)phenoxy)ethyl)piperazin-1-yl)-N-(3-(2,6-dioxopiperidin-3-ylamino)phenyl)acetamide], the “Y (AR degradation efficiency, % of DMSO control)” value is “* (0<Y<=25%)” and the DC50 was less than 100 nM.

On to `CC(F)(F)c1cc(N2C(=S)N(c3cnc(C#N)c(C(F)(F)F)c3)C(=O)C2(C)C)ccc1OCCN1CCN(CC(=O)Nc2cccc(NC3CCC(=O)NC3=O)c2)CC1` (stereo not shown) [Example 60, 2-(4-(2-(4-(3-(6-cyano-5-(trifluoromethyl)pyridin-3-yl)-5,5-dimethyl-4-oxo-2-thioxoimidazolidin-1-yl)-2-(1,1-difluoroethyl)phenoxy)ethyl)piperazin-1-yl)-N-(3-(2,6-dioxopiperidin-3-ylamino)phenyl)acetamide], for which the “Y (AR degradation efficiency, % of DMSO control)” value is “* (0<Y<=25%)” and the DC50 was less than 100 nM.

As for `CCc1cc(N2C(=S)N(c3ccc(C#N)c(C(F)(F)F)c3)C(=O)C2(C)C)ccc1OCCN1CCN(CC(=O)Nc2cc(F)cc(NC3CCC(=O)NC3=O)c2)CC1` (stereo not shown) [Example 61, 2-(4-(2-(4-(3-(4-cyano-3-(trifluoromethyl)phenyl)-5,5-dimethyl-4-oxo-2-thioxoimidazolidin-1-yl)-2-ethylphenoxy)ethyl)piperazin-1-yl)-N-(3-(2,6-dioxopiperidin-3-ylamino)-5-fluorophenyl)acetamide], the “Y (AR degradation efficiency, % of DMSO control)” value was “* (0<Y<=25%)” and the DC50 was less than 100 nM.

`CC(F)(F)c1cc(N2C(=S)N(c3cnc(C#N)c(C(F)(F)F)c3)C(=O)C2(C)C)ccc1OCCN1CCN(CC(=O)Nc2cc(Cl)cc(NC3CCC(=O)NC3=O)c2)CC1` (stereo not shown) [Example 62, N-(3-chloro-5-(2,6-dioxopiperidin-3-ylamino)phenyl)-2-(4-(2-(4-(3-(6-cyano-5-(trifluoromethyl)pyridin-3-yl)-5,5-dimethyl-4-oxo-2-thioxoimidazolidin-1-yl)-2-(1,1-difluoroethyl)phenoxy)ethyl)piperazin-1-yl)acetamide]: the “Y (AR degradation efficiency, % of DMSO control)” value is listed as “* (0<Y<=25%)” and the DC50 is less than 100 nM.

These data come from US12404241B2 (Celgene Corporation, priority 2018, dated 2025).
